Reference: PubChem BioAssay (NCI)
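Results reflect a 48-hour exposure of cells in 96-well plates to compound at five concentrations. GI50 = concentration required for 50% inhibition of growth. The concentration for full growth arrest is given as TGI.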

Experiments:
Assay in all cases: NCI-60 cell line screen, 48 h
DU-145 prostate = system: DU-145 prostate
MDA-MB-435 = system: MDA-MB-435
NCI-H522 lung = system: NCI-H522 lung
MALME-3M melanoma = system: MALME-3M melanoma
IGROV1 ovarian = system: IGROV1 ovarian
BT-549 breast = system: BT-549 breast
MDA-MB-231 breast = system: MDA-MB-231 breast
M14 melanoma = system: M14 melanoma
SF-268 CNS = system: SF-268 CNS
SR leukemia = system: SR leukemia

| Structure (SMILES) | TGI (DU-145 prostate) | TGI (MDA-MB-435) | TGI (NCI-H522 lung) | TGI (MALME-3M melanoma) | TGI (IGROV1 ovarian) | TGI (BT-549 breast) | TGI (MDA-MB-231 breast) | TGI (M14 melanoma) | TGI (SF-268 CNS) | TGI (SR leukemia) | GI50 (DU-145 prostate) | GI50 (MDA-MB-435) | GI50 (NCI-H522 lung) | GI50 (MALME-3M melanoma) | GI50 (IGROV1 ovarian) | GI50 (BT-549 breast) | GI50 (MDA-MB-231 breast) | GI50 (M14 melanoma) | GI50 (SF-268 CNS) | GI50 (SR leukemia) |
| --- | --- | --- | --- | --- | --- | --- | --- | --- | --- | --- | --- | --- | --- | --- | --- | --- | --- | --- | --- | --- |
| Cc1c2ccn(O)cc2c(C)c2c1nc1ccccc12 | > 100 µM | > 100 µM | 22.3 µM | > 41.8 µM | 55.8 µM | 53.8 µM | > 100 µM | > 100 µM | 27.5 µM | 15.2 µM |  |  |  |  |  |  |  |  |  |  |
| CCCCCCCCCCCCCCCCCc1nccn1CCOCCO | 10.4 µg/mL | 11.7 µg/mL | 10.2 µg/mL | 13.2 µg/mL | 13.2 µg/mL | 11.7 µg/mL | 9.29 µg/mL | 13 µg/mL | 10.4 µg/mL | 11.9 µg/mL | 5.34 µg/mL | 5.85 µg/mL | 4.84 µg/mL | 6.5 µg/mL | 6.03 µg/mL | 6.1 µg/mL | 4.4 µg/mL | 6.69 µg/mL | 5.16 µg/mL | 4.93 µg/mL |
| COc1cc(C2CC(c3cccc(Nc4ccnc5cc(Cl)ccc45)c3)=NN2c2ccc(Cl)cc2)cc(OC)c1OC (configuration not stated) | > 100 µM | 6.58 µM | 22.8 µM | > 100 µM | > 100 µM | 78.6 µM | > 100 µM | 13.8 µM | > 100 µM | > 100 µM | 17.1 µM | 0.804 µM | 1.57 µM | 21.9 µM | 3.89 µM | 4.63 µM | 2.97 µM | 0.63 µM | 8.16 µM | 2.54 µM |
| Cc1ccc2oc(=O)cc(/C(=C3/C=CC=N3)c3ccc[nH]3)c2c1 | 10.8 µM | 0.544 µM | 5.22 µM | 3.82 µM | 6.5 µM | 1.58 µM | 3.07 µM | 0.548 µM | 6.73 µM | 1.46 µM | 0.361 µM | 0.211 µM | 1.53 µM | 0.782 µM | 0.468 µM | 0.346 µM | 0.802 µM | 0.209 µM | 0.526 µM | 0.34 µM |
| CC1=CC(C)=NN=C(N)N1S(=O)(=O)c1cc(C)c(Cl)cc1SCc1ccccc1 | > 100 µM | > 100 µM | > 100 µM | > 100 µM | > 100 µM | > 100 µM | > 100 µM | > 100 µM | > 100 µM | > 100 µM | 73.4 µM | 21.3 µM | 7.78 µM | 49.1 µM | 46 µM | 17.8 µM | > 100 µM | 21.4 µM | 35.1 µM | 16.5 µM |
| CCCCC(CCCCCC(CCCC)NCc1ccc2c(c1)OCO2)NCc1ccc2c(c1)OCO2 (configuration not stated) | 2.04 µM | 0.398 µM | 1.27 µM | 2.56 µM | 2.22 µM | 3.06 µM | 1.83 µM | 0.324 µM | 2.22 µM | 0.495 µM | 0.803 µM | 0.199 µM | 0.604 µM | 1.09 µM | 0.887 µM | 1.48 µM | 0.539 µM | 0.182 µM | 0.905 µM | 0.215 µM |
| O=C(CC1(O)C(=O)N(Cc2ccccc2)c2ccc(Cl)cc21)c1ccc(C(=O)NCC2CCC3(CC2)OOC2(CCCCC2)OO3)cc1 (configuration not stated) | 0.326 µM | 1.4 µM | 0.373 µM | 0.537 µM | 0.444 µM | 15 µM | 0.988 µM | 17.3 µM | 3.67 µM | 0.531 µM | 0.179 µM | 0.394 µM | 0.169 µM | 0.209 µM | 0.197 µM | 2.42 µM | 0.327 µM | 2.52 µM | 1.4 µM | 0.214 µM |
| COc1cc2c3cc1Oc1c(OC)c(OC)cc4c1C(=NCC4)Cc1ccc(cc1)Oc1cc(ccc1O)C[C@H]3N(C)CC2 | > 100 µM | 37.3 µM | 25.3 µM | 18 µM | 94.4 µM | 24.9 µM | 27.8 µM | 29.8 µM | > 100 µM | 31.2 µM |  |  |  |  |  |  |  |  |  |  |
| NC(N)=NCC1CCCCCCN1 (configuration not stated) | > 100 µM | > 100 µM | > 100 µM | > 100 µM | > 100 µM | > 100 µM | > 100 µM | > 100 µM | > 100 µM | > 100 µM |  |  |  |  |  |  |  |  |  |  |
| CC1=C2CC(C)(C)/C=C\C(=O)/C(C)=C\C3=C[C@H](C)C[C@]3(O2)C1=O | 12.1 µM | 1.66 µM | 0.651 µM | 2.34 µM | 5.44 µM | 1.5 µM | 9.33 µM | 1.27 µM | 18.4 µM | 0.826 µM |  |  |  |  |  |  |  |  |  |  |
| CC(C)N1CCN(c2ccncc2S(=O)(=O)N2CCCCC2)CC1 | > 100 µM | > 100 µM | > 100 µM | > 100 µM | > 100 µM | > 100 µM | > 100 µM | > 100 µM | > 100 µM | > 100 µM |  |  |  |  |  |  |  |  |  |  |
| O=C1/C=C/[C@@H](O)[C@@H]2C[C@@H](O)C[C@H]2/C=C/CCC[C@H](CCc2cccc3ccccc23)O1 | 14.7 µM | 3.43 µM | 0.581 µM | 0.245 µM | 12.1 µM | 12.1 µM | 0.119 µM | 8.58 µM | 12.3 µM | 1.33 µM | 0.377 µM | 0.0394 µM | 0.234 µM | 0.036 µM | 0.267 µM | 0.0609 µM | 0.0464 µM | 0.0492 µM | 0.0365 µM | 0.0353 µM |
| C[C@@]1(C(=O)O)CCC[C@]2(C)C1CC[C@@]13C[C@@](O)(CC[C@]12O)[C@@]1(CO1)C3 (some centres not stated) | > 100 µM | > 100 µM | > 100 µM | > 100 µM | > 100 µM | > 100 µM | > 100 µM | > 100 µM | > 100 µM | > 100 µM | > 100 µM | > 100 µM | > 100 µM | > 100 µM | > 100 µM | > 100 µM | > 100 µM | > 100 µM | > 100 µM |  |
| O=C(CCl)NCCNc1nccc(Nc2ccc(S(=O)(=O)Nc3ccccn3)cc2)n1 | 12.3 µM | 7.13 µM | 3.98 µM | 10.5 µM | 6.72 µM | 13.9 µM | 9.98 µM | 4.69 µM | 12.9 µM | 11.2 µM | 2.45 µM | 1.96 µM | 1.61 µM | 2.3 µM | 2.12 µM | 2.32 µM | 2.9 µM | 1.72 µM | 2.63 µM | 2.45 µM |
| N#Cc1c(NCc2ccccc2)nc(NCc2ccccc2)c(C#N)c1-c1ccc(O)cc1 | > 100 µM | 69.8 µM | 75.1 µM | 68.5 µM | 74.8 µM | > 100 µM | 33 µM | > 100 µM | > 100 µM | 91.7 µM | 32.4 µM | 25.2 µM | 20.2 µM | 29.5 µM | 23.5 µM | 32.8 µM | 2.68 µM | 29.9 µM | 27.3 µM | 7.09 µM |
| C=C1C(=O)O[C@H]2[C@H]1CC/C(COC(=O)NCc1c[nH]c3ccccc13)=C\CC[C@@]1(C)O[C@@H]21 | 10.7 µM | 11.8 µM | 2.58 µM | 5.21 µM | 11.6 µM | 6.3 µM | 4.98 µM | 5 µM | 22.6 µM | 8.35 µM | 2.35 µM | 2.57 µM | 1.23 µM | 2.02 µM | 1.96 µM | 1.98 µM | 1.91 µM | 1.91 µM | 10.4 µM | 2.22 µM |
| O=C(Nc1ccc(Cc2ccccc2)cc1)Nc1nn(C(=O)Nc2ccc(Cc3ccccc3)cc2)c2ccccc12 | > 100 µM | > 100 µM | > 100 µM | > 100 µM | > 100 µM | > 100 µM | > 100 µM | > 100 µM | > 100 µM | 35.8 µM | 80 µM | > 100 µM | > 100 µM | > 100 µM | > 100 µM | > 100 µM | 47.1 µM | > 100 µM | 75.6 µM | 16.3 µM |
| CCCCN1CCCC[C@@H]1C(=O)N[C@H](C(=O)N(C)[C@H](C[C@@H](OC(C)=O)c1nc(C(=O)NC2CCC(C(=O)OC)CC2)cs1)C(C)C)C(C)C (some centres not stated) | > 25 µM | 0.736 µM | 7.04 µM | > 25 µM | > 25 µM | > 25 µM | 18.2 µM | 18.1 µM | > 25 µM | > 25 µM | 1.31 µM | 0.224 µM | 0.897 µM | 1.97 µM | 1.88 µM | 1.4 µM | 1.89 µM | 0.983 µM | 2.29 µM | 0.242 µM |
| COc1ccc(C#Cc2ccc(=O)oc2-c2cc(OC)c(OC)c(OC)c2)cc1O | > 85.9 µM | 2.78 µM | 22.3 µM | > 83.7 µM | 6.75 µM | > 64.2 µM | > 100 µM | > 51.6 µM | > 90.8 µM | 18.7 µM | 8.96 µM | 0.234 µM | 1.1 µM | 10.2 µM | 1.02 µM | 7.37 µM | 6.25 µM | 4.33 µM | 7.23 µM | 0.225 µM |
| CC(=O)O[C@H]([C@H](OC(C)=O)[C@H](C)OC(C)=O)[C@@H](/C=C/[C@@H]1CC=CC(=O)O1)OC(C)=O | > 100 µM | > 100 µM | 4.73 µM | > 100 µM |  | 51.3 µM | > 100 µM | > 100 µM | > 100 µM | > 100 µM | 37.9 µM | 19.8 µM | 2.05 µM | > 100 µM |  | 22.3 µM | > 100 µM | 42.6 µM | 28.9 µM | 77.5 µM |
